This note sets out measurements from ChEMBL document CHEMBL2057202, “Investigation of substituted 6-aminohexanoates as skin penetration enhancers” (Bioorg Med Chem, 2012).

Structures are written as SMILES. A value given as a limit tells only on which side of the number the result lay.

Series [1] is described as follows: Lipophilicity, log K of the compound by RP-HPLC analysis. The format is physicochemical.
Series [2] in a line: Potentiation of theophylline transdermal permeation in pig ear skin assessed as enhancement ratio at 20 mg after 24 hrs by Franz diffusion cell method. In kind it is ADME, Sus scrofa.
In series [3] the test system is SK-N-MC. In words: Antiproliferative activity against human SK-N-MC cells after 72 hrs by MTT assay. The format is cell-based. For orientation: Tetrazolium dyes change colour on reduction, which living cells bring about.

What is called IC50 is the concentration at which inhibition is half-maximal. Read a low IC50 as inhibition by little substance. On to `CCCCCCOC(=O)CCCCCN1C(=O)CCC1=O`, for which the “log K” value in series [1] is listed as -0.0201. The Ratio in series [2] is recorded as 2.71. In addition, the IC50 in series [3] was > 6.25 µM.
With `CCCCCCCOC(=O)CCCCCN1C(=O)CCC1=O`, the “log K” value in series [1] is on record as 0.15. Besides, the Ratio in series [2] is on record as 2.64. Besides, the IC50 in series [3] is > 6.25 µM.
Taken in the same sequence, the figures for `CCCCCCCCOC(=O)CCCCCN1C(=O)CCC1=O` were 0.3239, 2.55 and > 6.25 µM.
For the molecule `CCCCCCCCCOC(=O)CCCCCN1C(=O)CCC1=O`, in series [1], the “log K” value came to 0.4901. In series [2], the Ratio stood at 3.14. The IC50 in series [3] is > 6.25 µM.
Taken in the same sequence, the figures for `CCCCCCCCCCOC(=O)CCCCCN1C(=O)CCC1=O` were 0.6548, 3.54 and > 6.25 µM.
Taken in the same sequence, the figures for `CCCCCCCCCCCOC(=O)CCCCCN1C(=O)CCC1=O` were 0.8368, 3.51 and > 6.25 µM.
The corresponding values for `CCCCCCCCCCCCOC(=O)CCCCCN1C(=O)CCC1=O` are 1.0091, 2.93 and > 6.25 µM.
Turning to `CCCCCCOC(=O)C(CCCCN1C(=O)CCC1=O)N1CCCCCC1=O` (stereo unspecified), in series [1], the “log K” value is listed as -0.0764. In addition, the Ratio in series [2] stood at 1.93. Moreover, the IC50 in series [3] is > 6.25 µM.
Turning to `CCCCCCCOC(=O)C(CCCCN1C(=O)CCC1=O)N1CCCCCC1=O` (stereo unspecified), the “log K” value in series [1] was determined as 0.0658. The half-inhibitory concentration (IC50) in series [3] was > 6.25 µM.
With `CCCCCCCCOC(=O)C(CCCCN1C(=O)CCC1=O)N1CCCCCC1=O` (stereo unspecified), the “log K” value in series [1] came out at 0.2462. For the same molecule, in series [2], the Ratio is on record as 2.24. Moreover, the IC50 in series [3] was > 6.25 µM.
Taken in the same sequence, the figures for `CCCCCCCCCOC(=O)C(CCCCN1C(=O)CCC1=O)N1CCCCCC1=O` (stereo unspecified) were 0.4095, 1.87 and > 6.25 µM.
With `CCCCCCCCCCOC(=O)C(CCCCN1C(=O)CCC1=O)N1CCCCCC1=O` (stereo unspecified), in series [1], the “log K” value is 0.6158. In addition, in series [3], the 50% inhibitory concentration (IC50) was > 6.25 µM.
Take `CCCCCCCCCCCOC(=O)C(CCCCN1C(=O)CCC1=O)N1CCCCCC1=O` (stereo unspecified): in series [1], the “log K” value came out at 0.7462. Moreover, in series [2], the Ratio was 1.81. Also, the IC50 in series [3] was > 6.25 µM.
Taken in the same sequence, the figures for `CCCCCCCCCCCCOC(=O)C(CCCCN1C(=O)CCC1=O)N1CCCCCC1=O` (stereo unspecified) were 0.9081, 2.48 and > 6.25 µM.
For `CCCCCCCC/C=C\CCCCCCCC(=O)O` [OLEIC ACID], the Ratio in series [2] is on record as 1.13.
